From US20230263742A1, “A LIPID” (Stemirna Therapeutics Co., Ltd., priority 2021, published 2023)

Test system: Balb/C mice
Test: Luc expression in injection site and liver site after intramuscular administration (Example 5)
Format: in vivo
Conditions: 5 μg Luc mRNA-LNP (DSPC) intramuscularly, Balb/C mice n=3, 6 h
Protocol: Further bioluminescence studies were performed to investigate the delivery efficiency of nanoparticle compositions including various lipid compounds according to the present invention. The formulations containing reference cationic lipid M62, M63, M118, and M119 (corresponding to Compound 62, 63, 118, and 119 in PCT/US2018/022717 (WO2018/170306), respectively) were evaluated for comparison. Nanoparticle compositions including DSPC as an optimized phospholipid, cholesterol as a structural lipid, PEG-DMG as a PEG lipid, an RNA, and a compound above mentioned were prepared according to or via methods similar to those described in Examples 1 and 2. The ratios of the lipids were 50:10:38.5:1.5 mol % for the lipid of the present invention: DSPC: cholesterol: PEG-DMG. 5 μg of LNP solution containing luciferase mRNA was administered intramuscularly to Balb/C mice (n=3). 6 hours after administration, mice were injected intraperitoneally with 0.15 mg/kg of D-luciferin substrate. Within 15 minutes after the injection of the substrate, the fluorescence signal intensity in injection site and liver site were tested under a small animal in vivo imaging instrument. Tables 3-4 summarize the fluorescence signal intensity of the nanoparticle compositions including present invention lipids and the reference compounds in injection site and liver site.

SMILES	Luc expression in injection site, I.M. injection site, 6 h (ratio relative to SW-II-134-3 set as 1)	Luc expression in liver site, Liver site upon I.M., 6 h (ratio relative to SW-II-137-1 set as 1)
CCCCCCCCCOC(=O)CCCCCCCN(CCO)CCCCCCCC(=O)OCc1ccc(CCCCCC)c(CCCCCC)c1 [SW-II-115]	1.046	
CCCCCCCCC(CCCCCCCC)OC(=O)CCCCCCCN(CCO)CCCCCCCC(=O)OCc1cccc(CCCCCC)c1 [SW-II-122]	1.321	
CCCCCCCCC(CCCCCCCC)OC(=O)CCCCCCCN(CCO)CCCCCCC(=O)OCc1ccc(CCCCCC)cc1 [SW-II-127]	1.743	
CCCCCCCCCOC(=O)CCCCCCCN(CCO)CCCCCCCC(=O)OCCc1ccc(CCCCCC)c(CCCCCC)c1 [SW-II-134-1]	1.899	
CCCCCCCCCOC(=O)CCCCCCCN(CCO)CCCCCCCC(=O)OCCc1ccc(CCCCCCCC)c(CCCCCCCC)c1 [SW-II-134-2]	1.734	
CCCCCCCCCOC(=O)CCCCCCCN(CCO)CCCCCCCC(=O)OCCc1ccc(CCCC)c(CCCC)c1 [SW-II-134-3]	1.000	
CCCCCCCCCOC(=O)CCCCCCCN(CCO)CCCCCCCC(=O)OCCCc1ccc(CCCCC)c(CCCCC)c1 [SW-II-135-1]	1.771	
CCCCCCCCCOC(=O)CCCCCCCN(CCO)CCCCCCCC(=O)OCCCc1ccc(CCCCCCC)c(CCCCCCC)c1 [SW-II-135-2]	1.028	
CCCCCCCCCOC(=O)CCCCCCCN(CCO)CCCCCCCC(=O)OCCCCc1ccc(CCCCCC)c(CCCCCC)c1 [SW-II-136-2]	1.110	1.131
CCCCCCCCC(CCCCCCCC)OC(=O)CCCCCCCN(CCO)CCCCCCCC(=O)OCCCc1ccc(CCCC)cc1 [SW-II-137-1]		1.000
CCCCCCCCC(CCCCCCCC)OC(=O)CCCCCCCN(CCO)CCCCCCCC(=O)OCCCc1ccc(CCCCC)cc1 [SW-II-137-2]		1.206
CCCCCCCCC(CCCCCCCC)OC(=O)CCCCCCCN(CCO)CCCCCCCC(=O)OCCCc1ccc(CCCCCC)cc1 [SW-II-137-3]	1.358	1.981
CCCCCCCCC(CCCCCCCC)OC(=O)CCCCCCCN(CCO)CCCCCCCC(=O)OCCCCc1ccc(CCCC)cc1 [SW-II-138-1]	1.972	1.430
CCCCCCCCC(CCCCCCCC)OC(=O)CCCCCCCN(CCO)CCCCCCCC(=O)OCCCCc1ccc(CCCCC)cc1 [SW-II-138-2]	2.826	3.318
CCCCCCCCC(CCCCCCCC)OC(=O)CCCCCCCN(CCO)CCCCCCCC(=O)OCCCCc1ccc(CCCCCC)cc1 [SW-II-138-3]	1.294	2.850
CCCCCCCCC(CCCCCCCC)OC(=O)CCCCCCCN(CCO)CCCCCCCC(=O)OCCc1cccc(CCCCCC)c1 [SW-II-139-1]	1.807	2.355
CCCCCCCCC(CCCCCCCC)OC(=O)CCCCCCCN(CCO)CCCCCCCC(=O)OCCc1cccc(CCCC)c1 [SW-II-139-2]	1.440	1.355
CCCCCCCCC(CCCCCCCC)OC(=O)CCCCCCCN(CCO)CCCCCCCC(=O)OCCc1ccccc1CCCCCC [SW-II-140-1]	2.450	3.224
CCCCCCCCC(CCCCCCCC)OC(=O)CCCCCCCN(CCO)CCCCCCCC(=O)OCCc1ccccc1CCCC [SW-II-140-2]	2.257	6.991
